Legend:
[1] = system: serum calcium, serum phosphorous and alkaline phosphatase; experiment: Pharmacodynamics of PTH in Yorkshire pigs; type: in vivo; set-up: sCa / sP / sALP: unit not given here; conditions: for sALP / sCa / sP: Yorkshire pigs
Description: The serum calcium and serum phosphorous were estimated using Siemen's […] 744 Electrolyte Analyzer and for serum ALP Siemen's Dimension Expand Plus was used.
The pharmacodynamics data in subcutaneous and buccal/Sublingual groups are shown in Tables 21 and 22 and in FIGS. 63 and 64.

[2] = Summary of bioavailability of the formulations of the Examples compared to SC or IV; conditions: plasma, other: buccal/sublingual
[3] = Buccal/Sublingual Sugar Truffle Shell (0.49 mg), 0 h
[4] = Buccal/Sublingual Sugar Truffle Shell (0.49 mg), 0.08 h
[5] = Buccal/Sublingual Sugar Truffle Shell (0.49 mg), 0.5 h
[6] = Buccal/Sublingual Sugar Truffle Shell (0.49 mg), 1 h
[7] = Buccal/Sublingual Sugar Truffle Shell (0.49 mg), 2 h
[8] = Buccal/Sublingual Sugar Truffle Shell (0.49 mg), 4 h
[9] = Buccal/Sublingual Sugar Truffle Shell (0.49 mg), 8 h
[10] = Buccal/Sublingual Sugar Truffle Shell (0.49 mg), 24 h

Question: Which sALP [1, 3] does the source give for CC[C@H](C)[C@H](NC(=O)[C@H](CCC(=O)O)NC(=O)[C@H](CO)NC(=O)[C@@H](NC(=O)[C@@H](N)CO)C(C)C)C(=O)N[C@@H](CCC(N)=O)C(=O)N[C@@H](CC(C)C)C(=O)N[C@@H](CCSC)C(=O)N[C@@H](Cc1cnc[nH]1)C(=O)N[C@@H](CC(N)=O)C(=O)N[C@@H](CC(C)C)C(=O)NCC(=O)N[C@@H](CCCCN)C(=O)N[C@@H](Cc1cnc[nH]1)C(=O)N[C@@H](CC(C)C)C(=O)N[C@@H](CC(N)=O)C(=O)N[C@@H](CO)C(=O)N[C@@H](CCSC)C(=O)N[C@@H](CCC(=O)O)C(=O)N[C@@H](CCCN=C(N)N)C(=O)N[C@H](C(=O)N[C@@H](CCC(=O)O)C(=O)N[C@@H](Cc1c[nH]c2ccccc12)C(=O)N[C@@H](CC(C)C)C(=O)N[C@@H](CCCN=C(N)N)C(=O)N[C@@H](CCCCN)C(=O)N[C@@H](CCCCN)C(=O)N[C@@H](CC(C)C)C(=O)N[C@@H](CCC(N)=O)C(=O)N[C@@H](CC(=O)O)C(=O)N[C@H](C(=O)N[C@@H](Cc1cnc[nH]1)C(=O)N[C@@H](CC(N)=O)C(=O)N[C@@H](Cc1ccccc1)C(=O)O)C(C)C)C(C)C [PTH (1-34)] here?
Answer: 170.55 ± 12.85

Question: And the sCa [1, 3]?
Answer: 9.46 ± 0.4

Question: And the sP [1, 3]?
Answer: 10.52 ± 0.33

Question: And the sALP [1, 4]?
Answer: 193.5 ± 9.32

Question: And the sCa [1, 4]?
Answer: 10.05 ± 0.17

Question: What about the sP [1, 4] of the same molecule?
Answer: 9.87 ± 0.15

Question: What about the sALP [1, 5] of the same molecule?
Answer: 170.25 ± 10.81

Question: And the sCa [1, 5]?
Answer: 9.77 ± 0.12

Question: What about the sP [1, 5] of the same molecule?
Answer: 8.82 ± 0.17

Question: What about the sALP [1, 6] of the same molecule?
Answer: 148.5 ± 11.9

Question: And the sCa [1, 6]?
Answer: 9.62 ± 0.04

Question: What about the sP [1, 6] of the same molecule?
Answer: 8.3 ± 0.16

Question: And the sALP [1, 7]?
Answer: 137.75 ± 9.67

Question: And the sCa [1, 7]?
Answer: 9.25 ± 0.26

Question: What about the sP [1, 7] of the same molecule?
Answer: 9.1 ± 0.49

Question: And the sALP [1, 8]?
Answer: 131 ± 11.91

Question: And the sCa [1, 8]?
Answer: 9.3 ± 0.34

Question: And the sP [1, 8]?
Answer: 9 ± 0.11

Question: What about the sALP [1, 9] of the same molecule?
Answer: 128 ± 14.02

Question: And the sCa [1, 9]?
Answer: 9.17 ± 0.26

Question: And the sP [1, 9]?
Answer: 8.97 ± 0.17

Question: And the sALP [1, 10]?
Answer: 126.5 ± 15.28

Question: What about the sCa [1, 10] of the same molecule?
Answer: 9 ± 0.18

Question: And the sP [1, 10]?
Answer: 9.02 ± 0.14

Question: What about the sALP ([1]; Subcutaneous (40 μg), 0 h) of the same molecule?
Answer: 116.5 ± 6.36

Question: And the sCa ([1]; Subcutaneous (40 μg), 0 h)?
Answer: 9.35 ± 0.63

Question: And the sP ([1]; Subcutaneous (40 μg), 0 h)?
Answer: 10.7 ± 0.14

Question: And the sALP ([1]; Subcutaneous (40 μg), 0.08 h)?
Answer: 119.5 ± 2.12

Question: What about the sCa ([1]; Subcutaneous (40 μg), 0.08 h) of the same molecule?
Answer: 9.65 ± 0.77

Question: And the sP ([1]; Subcutaneous (40 μg), 0.08 h)?
Answer: 10.52 ± 0.17

Question: And the sALP ([1]; Subcutaneous (40 μg), 0.5 h)?
Answer: 134.5 ± 17.67

Question: And the sCa ([1]; Subcutaneous (40 μg), 0.5 h)?
Answer: 9.95 ± 0.49

Question: And the sP ([1]; Subcutaneous (40 μg), 0.5 h)?
Answer: 9.8 ± 0.28

Question: And the sALP ([1]; Subcutaneous (40 μg), 1 h)?
Answer: 158 ± 38.18

Question: And the sCa ([1]; Subcutaneous (40 μg), 1 h)?
Answer: 10.4 ± 0.14

Question: What about the sP ([1]; Subcutaneous (40 μg), 1 h) of the same molecule?
Answer: 9 ± 0.84

Question: What about the sALP ([1]; Subcutaneous (40 μg), 2 h) of the same molecule?
Answer: 152.5 ± 36.06

Question: And the sCa ([1]; Subcutaneous (40 μg), 2 h)?
Answer: 10.3 ± 0.14

Question: What about the sP ([1]; Subcutaneous (40 μg), 2 h) of the same molecule?
Answer: 10.25 ± 1.06

Question: What about the sALP ([1]; Subcutaneous (40 μg), 4 h) of the same molecule?
Answer: 141.5 ± 33.23

Question: What about the sCa ([1]; Subcutaneous (40 μg), 4 h) of the same molecule?
Answer: 9.9 ± 0.42

Question: And the sP ([1]; Subcutaneous (40 μg), 4 h)?
Answer: 11 ± 0

Question: And the sALP ([1]; Subcutaneous (40 μg), 8 h)?
Answer: 133.5 ± 23.33

Question: What about the sCa ([1]; Subcutaneous (40 μg), 8 h) of the same molecule?
Answer: 9.5 ± 0.28

Question: And the sP ([1]; Subcutaneous (40 μg), 8 h)?
Answer: 11.4 ± 0.28

Question: What about the sALP ([1]; Subcutaneous (40 μg), 24 h) of the same molecule?
Answer: 114.5 ± 3.53

Question: And the sCa ([1]; Subcutaneous (40 μg), 24 h)?
Answer: 9.4 ± 0.28

Question: And the sP ([1]; Subcutaneous (40 μg), 24 h)?
Answer: 11.6 ± 0.28

Question: And the “PD effect on serum calcium, serum phosphorous and serum alkaline phosphatase” value ([1]; pigs, PTH given by buccal/sublingual route)?
Answer: clearly indicates the effect on serum calcium, serum phosphorous and serum alkaline phosphatase

Question: And the bioavailability [2]?
Answer: > 7%

Source: patent publication US20240122847A1, “ORAL POLYPEPTIDE FORMULATIONS” (Bhami's Research Laboratory, Pvt. Ltd., priority 2022, published 2024)
